Data as given in patent US10028992B2, “Methods of treating muscular dystrophy” (BOARD OF REGENTS OF THE NEVADA SYSTEM OF HIGHER EDUCATION …, priority 2012, dated 2018).

Test system: α7 integrin promoter
Assay: muscle cell-based assay: α7βgal+/− myoblasts/myotubes, LacZ reporter, β-galactosidase cleavage of FDG
Parameters: species or system mouse; Results in α7+/− β-galactosidase assay: scale not given here
Outline: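 Primary α7βgal+/− mouse myoblasts (LacZ knocked into α7 integrin exon 1, promoter retained), differentiated; promoter activity read as β-galactosidase conversion of non-fluorescent FDG to fluorescein. Hits followed by dose-response, western analysis and myostatin counterscreen.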

Compound	Results in α7+/− β-galactosidase assay (Myotubes, 0.5 uM)	Results in α7+/− β-galactosidase assay (Myotubes, 1 uM)	Results in α7+/− β-galactosidase assay (Myotubes, 5 uM)	Results in α7+/− β-galactosidase assay (Myotubes, 10 uM)	Results in α7+/− β-galactosidase assay (Myotubes, 20 uM)	Results in α7+/− β-galactosidase assay (Myotubes, 40 uM)	Results in α7+/− β-galactosidase assay (Myoblasts, 0.5 uM)	Results in α7+/− β-galactosidase assay (Myoblasts, 1 uM)	Results in α7+/− β-galactosidase assay (Myoblasts, 5 uM)	Results in α7+/− β-galactosidase assay (Myoblasts, 10 uM)	Results in α7+/− β-galactosidase assay (Myoblasts, 20 uM)	Results in α7+/− β-galactosidase assay (Myoblasts, 40 uM)
Cc1[nH]c(/C=C2\C(=O)Nc3ccc([S+](=O)([O-])Cc4c(Cl)cccc4Cl)cc32)c(C)c1C(=O)C1CCCN1CN1CCCC1 (stereo not drawn) [drawing 517]	−0.02882	−0.08557	0.02824	−0.2838	−0.348	−0.7868						
O=C1Nc2ccccc2/C1=C1/Nc2ccccc2/C1=N\O [drawing 518]	0.09617	0.05181	−0.32	−0.625	−0.3346	−0.5024						
O=C(CNC(=O)c1cccc(F)c1)N/N=C/c1cc(Br)ccc1OCc1ccccc1 [drawing 519]							−0.00993	0.03356	0.1316	0.088	−0.1376	0.1351
Cc1ccccc1-n1c(S)nnc1Cc1cccs1 [drawing 520]							0.09422	0.03188	0.1364	0.3732	0.1056	0.01115
CCCCN(CC)Cc1ccc(C/N=C(\S)Nc2ccccc2F)o1 [drawing 521]							0.07412	0.014	0.01263	0.224	−0.04634	−0.1183
COc1ccc2c(c1)C(=C(C#N)C#N)C(=O)N2CCc1ccccc1 [drawing 522]							0.199	0.06668	−0.157	0.1343	−0.3414	−0.3915
Cn1cc(CN(CCO)Cc2cccs2)c(-c2ccccc2F)n1 [drawing 523]							0.1756	0.1912	−0.02798	0.2648	0.0346	−0.1208
CCN1C(=O)/C(=C(/C#N)c2nc3ccccc3[nH]2)c2ccccc21 [drawing 524]							−0.1641	−0.1562	−0.1933	−0.1296	−0.2594	−0.241
Cc1ccc2c(c1)/C(=C/c1ccc(F)cc1)C(=O)N2 [drawing 525]							0.006732	−0.03019	−0.1238	−0.2542	−0.5127	−0.7544
O=C1Nc2ccccc2/C1=C\c1ccnc2ccccc12 [drawing 526]							0.2132	0.0742	0.06287	0.1705	−0.2337	−0.1575
CCc1c(C)sc(NC(=O)c2ccco2)c1C#N [drawing 527]							0.01962	0.03303	−0.06162	−0.02233	−0.1898	−0.1237
CCc1c(C)sc(NC(=O)c2ccco2)c1C#N [drawing 528]							0.08233	0.08072	0.4585	0.07353	0.153	0.1981
O=C1Nc2ccccc2/C1=C/c1ccccc1Cl [drawing 529]							0.2214	0.2193	−0.03271	−0.1355	−0.2535	−0.6555
COc1cccc(CN2CCN(Cc3ccco3)CC2)c1.O=C(O)C(=O)O [drawing 530]							0.2392	0.1359	0.06492	−0.03174	0.218	0.2155
